# Measurements reported in the supplement of paper PMC10307832.
# What was measured:
# Assay in all cases: relative viability (nuclei count vs DMSO), 5 days (fraction); higher = more cells survive
# Irinotecan + Bortezomib = compound: CCc1c2c(nc3ccc(OC(=O)N4CCC(N5CCCCC5)CC4)cc13)-c1cc3c(c(=O)n1C2)COC(=O)[C@]3(O)CC [Irinotecan] + CC(C)C[C@H](NC(=O)[C@H](Cc1ccccc1)NC(=O)c1cnccn1)B(O)O [Bortezomib] (partner 0.002 µM)
# Method in brief: (§1)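 Lung cancer cell lines were seeded in 1536-well plates and dosed by pin tool the next day, with either a single drug or a fixed anchor-drug dose combined with five library-drug doses (not always all listed) spaced in √10 steps. Five days later, one step fixed the cells and stained their nuclei (final 0.05% Triton X-100, 1% formaldehyde, 1 ug/ml Hoechst), and nuclei were counted on 4× images. Relative viability is the nuclei count in treated wells divided by the count in vehicle wells, and each value is the median of duplicate plates.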
# MK-8033 + Crizotinib = compound: Cn1cc(-c2cnc3ccc4ccc(CS(=O)(=O)NCc5ccccn5)cc4c(=O)c3c2)cn1 [MK-8033] + C[C@@H](Oc1cc(-c2cnn(C3CCNCC3)c2)cnc1N)c1c(Cl)ccc(F)c1Cl [Crizotinib] (partner 1 µM)
# Method in brief: as §1
# MK-8033 + Tozasertib = compound: Cn1cc(-c2cnc3ccc4ccc(CS(=O)(=O)NCc5ccccn5)cc4c(=O)c3c2)cn1 [MK-8033] + Cc1cc(Nc2cc(N3CCN(C)CC3)nc(Sc3ccc(NC(=O)C4CC4)cc3)n2)n[nH]1 [Tozasertib] (partner 0.1 µM)
# Method in brief: as §1
# MK-8033 + Olaparib = compound: Cn1cc(-c2cnc3ccc4ccc(CS(=O)(=O)NCc5ccccn5)cc4c(=O)c3c2)cn1 [MK-8033] + O=C(c1cc(Cc2n[nH]c(=O)c3ccccc23)ccc1F)N1CCN(C(=O)C2CC2)CC1 [Olaparib] (partner 8 µM)
# Method in brief: as §1
cell line,measurement,setting,value
UMC-11,relative viability,Irinotecan + Bortezomib; first compound 0.6325 µM,0.595
same,relative viability,Irinotecan + Bortezomib; first compound 2 µM,0.519
same,relative viability,Irinotecan + Bortezomib; first compound 6.325 µM,0.184
same,relative viability,Irinotecan + Bortezomib; first compound 20 µM,0.139
same,relative viability,MK-8033 + Crizotinib; first compound 0.02 µM,0.737
same,relative viability,MK-8033 + Crizotinib; first compound 0.06325 µM,0.459
same,relative viability,MK-8033 + Crizotinib; first compound 0.2 µM,0.734
same,relative viability,MK-8033 + Crizotinib; first compound 0.6325 µM,0.678
same,relative viability,MK-8033 + Crizotinib; first compound 2 µM,0.697
same,relative viability,MK-8033 + Tozasertib; first compound 0.02 µM,0.201
same,relative viability,MK-8033 + Tozasertib; first compound 0.2 µM,0.193
same,relative viability,MK-8033 + Tozasertib; first compound 0.6325 µM,0.205
same,relative viability,MK-8033 + Tozasertib; first compound 2 µM,0.205
same,relative viability,MK-8033 + Olaparib; first compound 0.02 µM,0.449
same,relative viability,MK-8033 + Olaparib; first compound 0.06325 µM,0.375
same,relative viability,MK-8033 + Olaparib; first compound 0.2 µM,0.353
same,relative viability,MK-8033 + Olaparib; first compound 0.6325 µM,0.405
same,relative viability,MK-8033 + Olaparib; first compound 2 µM,0.37
